Values of other authors in patent US20140141090A1, “Pharmaceutical Composition Comprising Opioid Agonist And Sequestered Antagonist” (priority 2011, published 2014).
Structures can show the parent of a compound that is named as a salt. Where two headings read alike, the source gives them in different places.

Legend:
[1] = after oral administration
[2] = not given; remark: listed apart in the source
[3] = not given; remark: listed apart in the source
[4] = in comparison to a 15 mg dose of hydrocodone

In the case of COc1ccc2c3c1O[C@H]1[C@@H](O)C=C[C@H]4[C@@H](C2)N(C)CC[C@@]341 [codeine], the Equianalgesic dose [4] is given as 90.0 mg.
For C[C@H]1[C@H]2Cc3ccc(O)cc3[C@]1(C)CCN2CC1CC1 [cyclazocine], the Duration of action [1] is listed as about 24 h.
In the case of O=C1CC[C@@]2(O)[C@H]3Cc4ccc(O)c5c4[C@@]2(CCN3CC2CC2)[C@H]1O5 [hydrochloride salt of naltrexone, naltrexone hydrochloride], the Solubility in water [2] is listed as “up to 100 mg/cc”.
For COc1ccc2c3c1O[C@H]1C(=O)CC[C@H]4[C@@H](C2)N(C)CC[C@]314 [hydrocodone], the Equianalgesic dose [4] is listed as 15.0 mg.
In the case of CN1CC[C@]23CCCC[C@H]2[C@H]1Cc1ccc(O)cc13 [levorphanol], the Equianalgesic dose [4] is listed as 1.8 mg.
In the case of CCOC(=O)C1(c2ccccc2)CCN(C)CC1 [meperidine], the Equianalgesic dose (in vivo) is given as 135.0 mg.
In the case of CCC(=O)C(CC(C)N(C)C)(c1ccccc1)c1ccccc1 (stereo not drawn) [methadone], the Equianalgesic dose [4] is listed as 9.0 mg.
For CN1CC[C@]23c4c5ccc(O)c4O[C@H]2[C@@H](O)C=C[C@H]3[C@H]1C5 [morphine], the Equianalgesic dose (in vivo) is listed as 27.0 mg.
For O=C1CC[C@@]2(O)[C@H]3Cc4ccc(O)c5c4[C@@]2(CCN3CC2CC2)[C@H]1O5 [naltrexone], the Duration of action [1] is given as about 24 h, the Oral bioavailability [3] is given as 5-40% and the “Time of absorption following oral administration” value [3] is given as at most 1 h.
In the case of COc1ccc2c3c1OC1C(=O)CC[C@@]4(O)[C@@H](C2)N(C)CC[C@]314 (stereo partly drawn) [oxycodone, 4,5-epoxy-14-hydroxy-3-methoxy-17-methylmorphinan-6-one], the Equianalgesic dose [4] is listed as 13.5 mg.
